According to PubChem BioAssay (NCI):
Values joined by “and” are separate entries in the source; they are usually repeats but may differ in a detail not shown here. Equal values may be shown once.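 1) Cells in 96-well plates. 2) Compound, 48 h, 5 concentrations. 3) Linear interpolation between surrounding doses. 4) Unreached endpoint = highest concentration. GI50 = concentration required for 50% inhibition of growth. TGI denotes the concentration required for complete inhibition of growth.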

What was measured:
Assay in all cases: NCI tumour cell line growth inhibition, 48 h
ACHN renal = tested on: ACHN renal
CCRF-CEM leukemia = tested on: CCRF-CEM leukemia
HOP-62 NSCLC = tested on: HOP-62 NSCLC
HOP-92 NSCLC = tested on: HOP-92 NSCLC
KM12 colon = tested on: KM12 colon
MCF7 breast = tested on: MCF7 breast
MOLT-4 leukemia = tested on: MOLT-4 leukemia
SF-268 CNS = tested on: SF-268 CNS
UACC-62 melanoma = tested on: UACC-62 melanoma
K-562 leukemia = tested on: K-562 leukemia

SMILES	TGI (ACHN renal)	TGI (CCRF-CEM leukemia)	TGI (HOP-62 NSCLC)	TGI (HOP-92 NSCLC)	TGI (KM12 colon)	TGI (MCF7 breast)	TGI (MOLT-4 leukemia)	TGI (SF-268 CNS)	TGI (UACC-62 melanoma)	GI50 (ACHN renal)	GI50 (CCRF-CEM leukemia)	GI50 (HOP-62 NSCLC)	GI50 (HOP-92 NSCLC)	GI50 (K-562 leukemia)	TGI (K-562 leukemia)	GI50 (KM12 colon)	GI50 (MCF7 breast)	GI50 (MOLT-4 leukemia)	GI50 (SF-268 CNS)	GI50 (UACC-62 melanoma)
O=C1C[C@@H](c2ccccc2)NCCCCN(O)CCCN1	> 100 µM	> 100 µM	> 100 µM	> 100 µM	> 100 µM	> 100 µM	> 100 µM	> 100 µM	> 100 µM											
Cn1cc(-c2csc(-c3cn(CCN4CCOCC4)c4ccc(F)cc34)n2)c2cccnc21	12.9 µM	9.18 µM	7.59 µM	9.12 µM	11.1 µM	6.55 µM	4.46 µM	> 100 µM	5.34 µM	2.82 µM	3.07 µM	2.42 µM	2.39 µM	2.94 µM	10.3 µM	2.85 µM	1.94 µM	1.79 µM	2.82 µM	2.06 µM
Nc1c(C(=O)Nc2cccc3ccccc23)sc2nc3c(cc12)CCCC3	> 100 µM	> 100 µM	> 100 µM	9.29 µM	> 100 µM	> 100 µM	> 100 µM	> 100 µM	> 100 µM	4.37 µM	0.658 µM	2.16 µM	0.0769 µM	0.349 µM	> 100 µM	0.675 µM	0.0577 µM	0.637 µM	3.74 µM	0.716 µM
Clc1ccccc1-c1nc2ccccc2[nH]1	> 100 µM	> 100 µM	> 100 µM	> 100 µM	> 100 µM	> 100 µM	> 100 µM	> 100 µM	> 100 µM	> 100 µM	> 100 µM	> 100 µM	42.1 µM	80.2 µM	> 100 µM	85.2 µM	> 100 µM	> 100 µM	> 100 µM	> 100 µM
COC(=O)Nc1nc2c(OC)c(OC)c(OC)cc2[nH]1	> 100 µM	> 100 µM	> 100 µM	> 91.4 µM	> 100 µM	> 100 µM	> 100 µM	> 100 µM	> 100 µM	81.9 µM	25.4 µM	33.5 µM	20.9 µM	5.43 µM	> 100 µM	5.48 µM	9.38 µM	67.2 µM	59.2 µM	13.3 µM
OC(COc1ccc(Cl)cc1Cl)CN1CCCC1 (centres undefined)	> 100 µM	> 100 µM	> 100 µM	> 100 µM	> 100 µM	> 100 µM	> 100 µM	> 100 µM	50.1 µM						> 100 µM					
CC(C)(C)c1ccc(C(=O)N/N=C/c2ccc(O)cc2O)cc1	7.74 µM	> 36.9 µM	11.1 µM	13.7 µM	2.48 µM	12.7 µM	14.9 µM	8.19 µM	3.2 µM	0.334 µM	0.26 µM	0.418 µM	1.65 µM	0.476 µM	20.1 µM	0.418 µM	0.322 µM	0.346 µM	0.358 µM	0.363 µM
CC12C=CC(C)(O1)C1C2c2ccccc2S1(=O)=O (centres undefined)	> 100 µM	> 100 µM	> 100 µM	> 100 µM	> 100 µM	> 100 µM	> 100 µM	> 100 µM	> 100 µM	69.2 µM	28.2 µM	> 100 µM	58.6 µM	69.7 µM	> 100 µM	> 100 µM	50.4 µM	62.7 µM	68 µM	> 100 µM
O=C(c1ccc(O)cc1)c1ccc(C(=O)c2ccc(O)cc2)cc1	> 100 µM		46.7 µM	> 100 µM	> 100 µM	> 100 µM	> 100 µM	> 100 µM	> 100 µM	> 100 µM		18 µM	8.04 µM			> 100 µM	75.1 µM	> 100 µM	26.6 µM	> 100 µM
CCN(CC)c1ccc(/C=C/C(=O)c2cccc(NS(C)(=O)=O)c2)cc1	> 100 µM	18.1 µM	> 100 µM	71.1 µM	> 100 µM	> 100 µM	> 100 µM	> 100 µM		6.2 µM	3.19 µM	27.6 µM	14 µM	3.47 µM	> 100 µM	3.18 µM	3.72 µM	4.09 µM	18.5 µM	
O=C(O)c1cn(C2CC2)c2cc(N3CCN(S(=O)(=O)c4ccc(Cl)c(Cl)c4)CC3)c(F)cc2c1=O	> 100 µM	> 100 µM	> 100 µM	5.71 µM	> 100 µM	> 100 µM	> 100 µM	> 100 µM		3.1 µM	2.61 µM	4.77 µM	1.54 µM	3.92 µM	> 100 µM	3.62 µM	2.84 µM	4 µM	4.77 µM	
Cc1c(N2C(=O)/C(=C\c3ccc(O)cc3)N=C2c2ccccc2)c(=O)n(-c2ccccc2)n1C	> 100 µM		> 100 µM	> 100 µM	> 100 µM	> 100 µM	> 100 µM	> 100 µM	> 100 µM	> 100 µM		> 100 µM	> 100 µM	> 100 µM	> 100 µM	> 100 µM	> 100 µM	> 100 µM	> 100 µM	> 100 µM
Cc1cc2nc3ccc(N=Nc4ccc(N(C)C)cc4)cc3n(-c3ccccc3)c-2cc1=N		0.203 µM and 0.141 µM	1.75 µM	0.386 µM	0.116 µM	0.0143 µM	1.92 µM	0.26 µM		0.0233 µM and 0.21 µM	0.00858 µM and 0.0162 µM	0.0406 µM	0.0325 µM	0.00686 µM		0.0174 µM	0.00199 µM	0.0146 µM	0.0332 µM	
O=C(CCCn1ccnc1[N+](=O)[O-])NCCn1cnc([N+](=O)[O-])c1	> 100 µM	> 100 µM	> 100 µM		> 100 µM	> 100 µM	> 100 µM	> 100 µM	> 100 µM						> 100 µM					
